Data set [1] has as its system Oryctolagus sp. The conditions noted are these: for LD50: acute.
The test system of data set [2] is Rattus norvegicus. The conditions noted are these: for LD50 / LC50: acute.
For data set [3], the system named is Rattus norvegicus. Conditions: M/F.
Setting [4] is: developmental, duration: 10 days, oral, gavage, Sprague-Dawley.
Where [5] appears, read: reproduction developmental, duration: 10 days, oral, gavage, F, Sprague-Dawley.
Setting [6] is: reproduction developmental, duration: 4 weeks, inhalation, particle, Sprague-Dawley.
Where [7] appears, read: short-term, duration: 4 weeks, oral, diet, Crl:CD(SD).
The mark [8] stands for this setting: chronic, duration: 2 years, oral, diet, reduced body weight.
Setting [9] is: developmental, oral, reduced body weight gain in parental animals and pups.
[10] abbreviates: reproduction developmental, oral, reduced body weight gain in f1 females.
The mark [11] stands for this setting: chronic, inhalation, increased kidney, adrenal and pituitary weight.
[12] abbreviates: developmental, inhalation, Reduced maternal weight gain.
Where [13] appears, read: reproduction developmental, oral, gavage, Sprague-Dawley.
The mark [14] stands for this setting: subchronic, duration: 13 weeks, oral, gavage, Sprague-Dawley.

SMILES strings stand for the structures. “And” between values parts separate entries of the source, which are not always exact repeats. Equal values may be shown once. Some results are limits rather than exact numbers.

For orientation: LD50 means the dose at which mortality reaches 50%. A word on the NOAEL: it is the highest dose or exposure tested at which no adverse effect was seen. As to `CC(C#N)CCC#N` (stereo not drawn) [2-Methylpentanedinitrile], the LD50 in data set [1] (dermal, New Zealand) is 776 mg/kg; in data set [2] (oral, Sprague-Dawley), 205 mg/kg and ≥ 174 mg/kg and ≤ 243 mg/kg. In data set [2] (short-term, duration: 4 weeks, inhalation, Crl:CD(SD) BR), the NOAEL was determined as 25 mg/m3.
Take `O=P(OC(CCl)CCl)(OC(CCl)CCl)OC(CCl)CCl` [Tris(1,3-dichloro-2-propyl) phosphate]: the LD50 in data set [1] (dermal) was more than 4640 mg/kg; in data set [1] (oral, gavage, Dutch-belted) it was 6800 mg/kg; in data set [2] (oral, gavage, Sprague-Dawley) it was 3160 mg/kg. Besides, the NOAEL in data set [2] (chronic, duration: 12 months, oral, diet, Sprague-Dawley) came to 5 mg/kg-day; in data set [2] (setting [4]), 100 mg/kg-day; in data set [2] (setting [5]) it was 25 mg/kg-day.
The term LC50 denotes the concentration that kills 50% of the test population. Broadly, the LOAEL is the lowest dose or exposure tested at which an adverse effect was seen. Consider `c1ccc2sc(SN3CCOCC3)nc2c1` [N-Oxydiethylene-2-benzothiazylsulfenamide], for which the LD50 in data set [1] (dermal, occlusive, New Zealand) is more than 5010 mg/kg; in data set [2] (oral), 7000 mg/kg; in data set [2] (oral, gavage, Sprague-Dawley) it was 12600 mg/kg and > 7940 mg/kg; in data set [2] (oral, gavage, Wistar), more than 10000 mg/kg. For the same molecule, the NOAEL is 2000 mg/kg-day in data set [1] (reproduction developmental, duration: 21 days, dermal, New Zealand); 1000 mg/kg-day in data set [2] (developmental, duration: 10 days, oral, gavage); 270 mg/kg-day in data set [2] (developmental, duration: 21 days, oral, diet, Wistar); 9.8 mg/m3 in data set [2] (setting [6]); 100 mg/kg-day in data set [2] (reproduction developmental, duration: 10 days, oral, gavage, F); 270 mg/kg-day in data set [2] (reproduction developmental, duration: 21 days, oral, diet, F, Wistar). In addition, in data set [2] (setting [7]), the NOAEL was 200 mg/kg-day. In data set [2] (inhalation, particle), this molecule yielded an LC50 of more than 151 µg/mL. In addition, the LOAEL in data set [2] (setting [6]) was 10.2 mg/m3; in data set [2] (setting [7]), 500 mg/kg-day.
The molecule `CCOC(C)(C)C` [Ethyl t-butyl ether] registered an NOAEL in data set [3] (chronic, duration: 2 years, inhalation, Fischer 344, Increased absolute kidney weight in female rats) of 6270 mg/m3.
Turning to `COC(=O)c1ccccc1S(=O)(=O)NC(=O)Nc1nc(C)nc(OC)n1` [Metsulfuron-methyl], in data set [3] (setting [8]), the LEL is 250 mg/kg-day and the NOEL worked out at 25 mg/kg-day.
In the case of `C[CH2][Pb]([CH2]C)([CH2]C)[CH2]C` [Tetraethyl lead], the LOAEL in data set [3] (subchronic, oral, histopathology: liver and thymus) is 0.0017 mg/kg-day.
On to `C=C1C2CCC(C2)C1(C)C` (stereo not drawn) [Camphene], for which the LD50 was more than 2500 mg/kg in data set [1] (dermal, New Zealand) and more than 5000 mg/kg in data set [2] (oral, Wistar). In addition, the NOAEL was determined as 1000 mg/kg-day in data set [2] (setting [4]); 250 mg/kg-day in data set [2] (setting [5]); 250 mg/kg-day in data set [2] (short-term, duration: 28 days, oral, gavage, F, Wistar); 62.5 mg/kg-day in data set [2] (short-term, duration: 28 days, oral, gavage, M, Wistar). Further, in data set [2] (short-term, duration: 28 days, oral, gavage, Wistar), the LOAEL is 1000 mg/kg-day.
In the case of `CCN(CC)C(=O)C(C)Oc1cccc2ccccc12` (stereo not drawn) [Napropamide], in data set [3] (setting [9]), the LEL worked out at 100 mg/kg-day and the NOEL amounted to 30 mg/kg-day.
Consider `CNC(=O)N(C)c1nnc(C(C)(C)C)s1` [Tebuthiuron], for which, in data set [3] (setting [10]), the LEL came to 14 mg/kg-day and the NOEL turned out to be 7 mg/kg-day.
Regarding `COc1c(Cl)ccc(Cl)c1C(=O)[O-].[Na+]` [Sodium dicamba], the LD50 in data set [1] (dermal, occlusive, New Zealand) is more than 400 mg/kg; in data set [2] (oral, Sprague-Dawley), more than 1000 mg/kg.
`O=C(CCl)c1ccccc1` [2-Chloroacetophenone] returned an LOAEL in data set [3] (chronic, inhalation, squamous hyperplasia of the nasal respiratory epithelium) of 1 mg/m3.
On to `FC(F)Cl` [Chlorodifluoromethane], for which, in data set [3] (setting [11]), the LOAEL was 177000 mg/m3 and the NOAEL is 35400 mg/m3. In addition, in data set [3] (setting [12]), the LOAEL was 177000 mg/m3 and the NOAEL was 3540 mg/m3.
As to `CCOP(=O)(CN(CCO)CCO)OCC` [Diethyl (N,N-bis(2-hydroxyethyl)amino)methanephosphonate], the LD50 in data set [1] (dermal) is more than 2000 mg/kg; in data set [1] (dermal, Albino) it was more than 2000 mg/kg; in data set [2] (oral, gavage, Sprague-Dawley), more than 5000 mg/kg. Also, the values for the LOAEL in data set [2] (setting [13]) and in data set [2] (setting [14]) were more than 750 mg/kg-day and more than 500 mg/kg-day, respectively. For the same molecule, the figures for the NOAEL in data set [2] (setting [13]) and in data set [2] (setting [14]) were 750 mg/kg-day and 500 mg/kg-day, respectively.
For `[Na+].[S-]c1nc2ccccc2s1` [Sodium 2-mercaptobenzothiolate], the LD50 is more than 7940 mg/kg in data set [1] (dermal); more than 7940 mg/kg in data set [1] (dermal, occlusive, New Zealand); 4350 mg/kg in data set [2] (oral); 1480 mg/kg and 4350 mg/kg in data set [2] (oral, Sprague-Dawley). Moreover, the LC50 in data set [2] (inhalation) is more than 6.5 µg/mL; in data set [2] (inhalation, Sprague-Dawley) it was more than 1.3 µg/mL.
